Assay results: ChEMBL document CHEMBL4800728, “Data for DCP probe JNJ-54119936” (2021)

Experiments:
[1] = molecular target: Nuclear receptor ROR-alpha (Homo sapiens) (UniProt P35398); test: ThermoFluor Binding Assay (RORA)
[2] = molecular target: Calcium/calmodulin-dependent protein kinase type II subunit beta (Homo sapiens) (UniProt Q13554); test: CaMKIIbeta Invitrogen kinase panel; settings: Compound concentration 10.0 uM
[3] = molecular target: Death-associated protein kinase 3 (Homo sapiens) (UniProt O43293); test: ZIPK Invitrogen kinase panel; settings: Compound concentration 10.0 uM
Chain of Death-associated protein kinase 3 (Homo sapiens) (O43293 whole entry, looked up): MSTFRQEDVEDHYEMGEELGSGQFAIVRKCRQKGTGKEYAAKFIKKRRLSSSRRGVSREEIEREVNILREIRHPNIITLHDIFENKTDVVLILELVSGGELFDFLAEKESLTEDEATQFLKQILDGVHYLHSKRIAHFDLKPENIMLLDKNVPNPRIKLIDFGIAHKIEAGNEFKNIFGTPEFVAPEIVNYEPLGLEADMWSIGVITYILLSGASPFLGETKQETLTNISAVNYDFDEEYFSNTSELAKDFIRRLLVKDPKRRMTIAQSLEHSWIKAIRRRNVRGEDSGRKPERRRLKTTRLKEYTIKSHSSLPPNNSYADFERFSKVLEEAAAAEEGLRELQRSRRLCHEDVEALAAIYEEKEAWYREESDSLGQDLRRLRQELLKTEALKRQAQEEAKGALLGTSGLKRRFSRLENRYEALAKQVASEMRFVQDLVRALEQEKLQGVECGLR

[4] = molecular target: Glycogen synthase kinase-3 beta (Homo sapiens) (UniProt P49841); test: GSK3beta Invitrogen kinase panel; settings: Compound concentration 10.0 uM
[5] = molecular target: Interleukin-1 receptor-associated kinase 4 (Homo sapiens) (UniProt Q9NWZ3); test: IRAK4 Invitrogen kinase panel; settings: Compound concentration 10.0 uM
[6] = molecular target: Mitogen-activated protein kinase 3 (Homo sapiens) (UniProt P27361); test: ERK1 Invitrogen kinase panel; settings: Compound concentration 10.0 uM
[7] = molecular target: Rho-associated protein kinase 1 (Homo sapiens) (UniProt Q13464); test: ROCK_I Invitrogen kinase panel; settings: Compound concentration 10.0 uM
[8] = molecular target: Tyrosine-protein kinase ZAP-70 (Homo sapiens) (UniProt P43403); test: ZAP_70 Invitrogen kinase panel; settings: Compound concentration 10.0 uM
Chain of Tyrosine-protein kinase ZAP-70 (Homo sapiens) (P43403 whole entry): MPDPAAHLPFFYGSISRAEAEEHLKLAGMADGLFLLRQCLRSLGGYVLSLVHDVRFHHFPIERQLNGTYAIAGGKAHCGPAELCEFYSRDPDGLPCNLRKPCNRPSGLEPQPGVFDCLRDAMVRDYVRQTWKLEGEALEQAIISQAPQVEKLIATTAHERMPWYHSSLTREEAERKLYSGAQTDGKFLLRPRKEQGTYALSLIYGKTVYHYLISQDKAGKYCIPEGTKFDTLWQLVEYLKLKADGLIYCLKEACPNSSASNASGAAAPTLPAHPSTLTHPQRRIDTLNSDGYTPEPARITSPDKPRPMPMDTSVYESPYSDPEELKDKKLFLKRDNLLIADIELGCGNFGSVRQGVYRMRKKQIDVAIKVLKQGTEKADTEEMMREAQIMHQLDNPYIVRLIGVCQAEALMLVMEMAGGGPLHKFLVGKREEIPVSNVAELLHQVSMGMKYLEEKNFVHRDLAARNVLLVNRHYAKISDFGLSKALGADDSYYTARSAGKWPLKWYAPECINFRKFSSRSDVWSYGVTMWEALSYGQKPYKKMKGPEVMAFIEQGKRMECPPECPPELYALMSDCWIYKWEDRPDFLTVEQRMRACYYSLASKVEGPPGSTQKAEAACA

[9] = molecular target: Oxysterols receptor LXR-alpha (Homo sapiens) (UniProt Q13133); test: (§1) LXRalpha In-house nuclear receptor screen; settings: Compound concentration 3.0 uM
Chain of Oxysterols receptor LXR-alpha (Homo sapiens) (Q13133 whole entry): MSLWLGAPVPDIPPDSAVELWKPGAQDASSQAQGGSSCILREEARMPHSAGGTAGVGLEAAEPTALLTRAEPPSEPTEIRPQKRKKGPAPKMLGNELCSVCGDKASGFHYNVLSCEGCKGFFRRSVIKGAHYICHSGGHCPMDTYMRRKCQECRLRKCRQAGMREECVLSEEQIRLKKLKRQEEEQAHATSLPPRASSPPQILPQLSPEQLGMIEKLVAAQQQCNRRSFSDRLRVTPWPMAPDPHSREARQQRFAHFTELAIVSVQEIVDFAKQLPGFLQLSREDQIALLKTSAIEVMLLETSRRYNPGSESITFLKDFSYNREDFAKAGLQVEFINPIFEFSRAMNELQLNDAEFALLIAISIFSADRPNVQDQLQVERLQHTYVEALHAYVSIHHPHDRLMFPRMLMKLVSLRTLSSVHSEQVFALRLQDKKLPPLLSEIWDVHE

[10] = molecular target: Oxysterols receptor LXR-alpha (Homo sapiens, UniProt Q13133); test: as §1
Chain of Oxysterols receptor LXR-alpha (Q13133 whole entry): as above

[11] = molecular target: T1, Bile acid receptor (Homo sapiens) (UniProt Q96RI1); test: FXR In-house nuclear receptor screen; settings: Compound concentration 3.0 uM
T1 sequence (whole entry): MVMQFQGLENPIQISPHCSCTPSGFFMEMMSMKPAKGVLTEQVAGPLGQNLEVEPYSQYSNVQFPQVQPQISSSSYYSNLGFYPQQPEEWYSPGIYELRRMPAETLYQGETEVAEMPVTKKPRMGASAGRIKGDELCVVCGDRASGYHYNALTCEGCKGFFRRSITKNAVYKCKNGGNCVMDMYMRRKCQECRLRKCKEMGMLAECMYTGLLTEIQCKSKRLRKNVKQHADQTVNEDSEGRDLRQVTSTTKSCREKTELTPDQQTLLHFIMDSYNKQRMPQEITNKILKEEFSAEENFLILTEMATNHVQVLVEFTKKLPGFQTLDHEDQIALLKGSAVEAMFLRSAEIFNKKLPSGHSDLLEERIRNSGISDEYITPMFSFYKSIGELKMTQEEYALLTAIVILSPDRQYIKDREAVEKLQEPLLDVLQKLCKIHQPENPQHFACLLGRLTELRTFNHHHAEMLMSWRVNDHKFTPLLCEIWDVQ

[12] = molecular target: Adenosine receptor A3 (Homo sapiens) (UniProt P0DMS8); test: A3 (h) CEREP screen
Chain of Adenosine receptor A3 (Homo sapiens) (P0DMS8 whole entry): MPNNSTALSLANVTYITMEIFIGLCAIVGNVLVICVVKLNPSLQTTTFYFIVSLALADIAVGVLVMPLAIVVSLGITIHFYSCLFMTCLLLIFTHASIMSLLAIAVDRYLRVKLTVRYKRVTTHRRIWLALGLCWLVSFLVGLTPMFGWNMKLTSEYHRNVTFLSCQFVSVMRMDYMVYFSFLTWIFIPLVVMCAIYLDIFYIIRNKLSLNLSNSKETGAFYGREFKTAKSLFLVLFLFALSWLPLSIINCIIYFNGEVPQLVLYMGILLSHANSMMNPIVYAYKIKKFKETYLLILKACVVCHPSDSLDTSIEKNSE

[13] = molecular target: Delta-type opioid receptor (Homo sapiens) (UniProt P41143); test: Delta2 (h) CEREP screen; settings: Compound concentration 10.0 uM
[14] = molecular target: 5-hydroxytryptamine receptor 6 (Homo sapiens) (UniProt P50406); test: 5-HT6 (h) CEREP screen
Chain of 5-hydroxytryptamine receptor 6 (Homo sapiens) (P50406 whole entry): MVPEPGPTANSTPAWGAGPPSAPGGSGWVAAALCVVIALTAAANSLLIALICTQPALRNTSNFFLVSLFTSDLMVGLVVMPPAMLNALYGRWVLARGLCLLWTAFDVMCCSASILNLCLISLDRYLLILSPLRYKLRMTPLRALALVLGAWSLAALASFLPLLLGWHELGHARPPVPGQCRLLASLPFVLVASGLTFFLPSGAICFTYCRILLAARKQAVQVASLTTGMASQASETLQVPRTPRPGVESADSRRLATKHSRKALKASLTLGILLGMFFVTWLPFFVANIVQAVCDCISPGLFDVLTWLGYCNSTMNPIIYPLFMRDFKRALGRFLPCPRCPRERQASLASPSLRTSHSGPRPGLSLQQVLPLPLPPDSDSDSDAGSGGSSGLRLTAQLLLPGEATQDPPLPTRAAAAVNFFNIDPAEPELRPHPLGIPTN

[15] = molecular target: Sodium-dependent dopamine transporter (Homo sapiens) (UniProt Q01959); test: dopamine transporter (h) CEREP screen
Chain of Sodium-dependent dopamine transporter (Homo sapiens) (Q01959 whole entry): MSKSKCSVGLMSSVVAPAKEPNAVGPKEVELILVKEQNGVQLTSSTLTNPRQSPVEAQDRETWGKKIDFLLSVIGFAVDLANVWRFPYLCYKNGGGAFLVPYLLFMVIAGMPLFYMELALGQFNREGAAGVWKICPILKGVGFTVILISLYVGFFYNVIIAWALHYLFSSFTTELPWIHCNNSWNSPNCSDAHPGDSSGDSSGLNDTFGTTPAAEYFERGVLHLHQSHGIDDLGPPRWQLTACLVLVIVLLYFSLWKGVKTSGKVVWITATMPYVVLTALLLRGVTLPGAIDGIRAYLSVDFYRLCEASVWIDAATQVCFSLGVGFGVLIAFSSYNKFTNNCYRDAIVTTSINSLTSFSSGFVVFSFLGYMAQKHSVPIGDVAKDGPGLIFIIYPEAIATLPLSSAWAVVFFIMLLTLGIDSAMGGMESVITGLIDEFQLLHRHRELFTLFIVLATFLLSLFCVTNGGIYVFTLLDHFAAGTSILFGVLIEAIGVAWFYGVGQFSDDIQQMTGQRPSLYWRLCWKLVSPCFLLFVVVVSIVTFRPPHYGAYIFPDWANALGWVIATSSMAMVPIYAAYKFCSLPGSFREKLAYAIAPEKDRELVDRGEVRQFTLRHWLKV

[16] = molecular target: Oxysterols receptor LXR-alpha (Homo sapiens) (UniProt Q13133); test: LXRalpha Indigo Bioscience nuclear receptor screen; settings: Compound concentration 0.3 uM
[17] = molecular target: T2, Oxysterols receptor LXR-beta (Homo sapiens) (UniProt P55055); test: LXRbeta Indigo Bioscience nuclear receptor screen
T2 sequence (whole entry): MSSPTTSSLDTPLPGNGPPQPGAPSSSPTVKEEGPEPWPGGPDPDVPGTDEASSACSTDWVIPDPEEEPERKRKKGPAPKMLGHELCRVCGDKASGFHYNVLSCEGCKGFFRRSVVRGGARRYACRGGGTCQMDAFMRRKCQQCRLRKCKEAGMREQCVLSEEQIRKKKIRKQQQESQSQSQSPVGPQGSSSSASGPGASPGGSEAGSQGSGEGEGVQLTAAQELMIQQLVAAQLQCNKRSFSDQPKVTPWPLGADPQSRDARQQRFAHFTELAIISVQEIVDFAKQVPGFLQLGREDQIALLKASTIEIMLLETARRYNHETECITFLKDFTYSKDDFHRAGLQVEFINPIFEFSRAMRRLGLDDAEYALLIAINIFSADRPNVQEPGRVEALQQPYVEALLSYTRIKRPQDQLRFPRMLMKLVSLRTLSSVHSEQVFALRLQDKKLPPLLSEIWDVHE

[18] = molecular target: 5-hydroxytryptamine receptor 1B (Homo sapiens) (UniProt P28222); settings: Compound concentration 10.0 uM
[19] = molecular target: 5-hydroxytryptamine receptor 2B (Homo sapiens) (UniProt P41595); settings: Compound concentration 10.0 uM
[20] = molecular target: 5-hydroxytryptamine receptor 2C (Homo sapiens) (UniProt P28335); settings: Compound concentration 10.0 uM
[21] = molecular target: 5-hydroxytryptamine receptor 6 (Homo sapiens) (UniProt P50406); settings: Compound concentration 10.0 uM
[22] = molecular target: D(1A) dopamine receptor (Homo sapiens) (UniProt P21728); settings: Compound concentration 10.0 uM
[23] = molecular target: Sodium-dependent noradrenaline transporter (Homo sapiens) (UniProt P23975); settings: Compound concentration 10.0 uM
[24] = molecular target: Sodium-dependent dopamine transporter (Homo sapiens) (UniProt Q01959); settings: Compound concentration 10.0 uM
[25] = molecular target: Alpha-1A adrenergic receptor (Homo sapiens) (UniProt P35348); settings: Compound concentration 10.0 uM
[26] = molecular target: Alpha-1B adrenergic receptor (Homo sapiens) (UniProt P35368); settings: Compound concentration 10.0 uM
[27] = molecular target: Alpha-2A adrenergic receptor (Homo sapiens) (UniProt P08913); settings: Compound concentration 10.0 uM
Chain of Alpha-2A adrenergic receptor (Homo sapiens) (P08913 whole entry): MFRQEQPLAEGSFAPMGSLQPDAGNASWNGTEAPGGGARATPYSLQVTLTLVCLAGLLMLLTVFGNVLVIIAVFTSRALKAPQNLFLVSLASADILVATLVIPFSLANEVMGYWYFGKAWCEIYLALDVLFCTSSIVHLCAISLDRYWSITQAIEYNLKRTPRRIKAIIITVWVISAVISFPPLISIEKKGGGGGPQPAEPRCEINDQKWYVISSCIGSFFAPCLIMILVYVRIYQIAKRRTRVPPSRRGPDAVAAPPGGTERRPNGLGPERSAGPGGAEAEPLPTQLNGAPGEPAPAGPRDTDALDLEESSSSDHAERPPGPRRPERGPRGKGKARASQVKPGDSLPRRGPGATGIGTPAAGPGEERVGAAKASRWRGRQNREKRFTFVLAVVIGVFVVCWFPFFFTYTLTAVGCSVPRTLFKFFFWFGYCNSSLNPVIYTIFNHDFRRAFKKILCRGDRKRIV

[28] = molecular target: Alpha-2B adrenergic receptor (Homo sapiens) (UniProt P18089); settings: Compound concentration 10.0 uM
Chain of Alpha-2B adrenergic receptor (Homo sapiens) (P18089 whole entry): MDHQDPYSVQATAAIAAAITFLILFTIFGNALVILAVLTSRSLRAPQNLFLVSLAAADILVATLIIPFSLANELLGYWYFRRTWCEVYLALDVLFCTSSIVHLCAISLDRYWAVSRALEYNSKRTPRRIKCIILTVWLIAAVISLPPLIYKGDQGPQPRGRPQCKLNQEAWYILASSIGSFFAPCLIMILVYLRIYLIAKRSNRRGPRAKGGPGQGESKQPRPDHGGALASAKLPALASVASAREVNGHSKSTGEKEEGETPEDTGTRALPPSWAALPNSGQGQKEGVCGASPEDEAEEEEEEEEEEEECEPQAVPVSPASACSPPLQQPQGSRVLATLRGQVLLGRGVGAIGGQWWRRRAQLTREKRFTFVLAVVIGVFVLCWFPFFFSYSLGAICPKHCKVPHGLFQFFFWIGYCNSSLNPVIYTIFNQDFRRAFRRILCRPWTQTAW

[29] = molecular target: Muscarinic acetylcholine receptor M3 (Homo sapiens) (UniProt P20309); settings: Compound concentration 10.0 uM
[30] = molecular target: Sigma intracellular receptor 2 (Homo sapiens, UniProt Q5BJF2); settings: Compound concentration 10.0 uM
Chain of Sigma intracellular receptor 2 (Q5BJF2 whole entry): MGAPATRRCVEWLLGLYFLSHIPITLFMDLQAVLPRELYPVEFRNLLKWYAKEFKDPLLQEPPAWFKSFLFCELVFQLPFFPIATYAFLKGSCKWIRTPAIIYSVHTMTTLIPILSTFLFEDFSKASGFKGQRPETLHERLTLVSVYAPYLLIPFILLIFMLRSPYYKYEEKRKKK

[31] = molecular target: Sigma non-opioid intracellular receptor 1 (Homo sapiens, UniProt Q99720); settings: Compound concentration 10.0 uM
Chain of Sigma non-opioid intracellular receptor 1 (Q99720 whole entry): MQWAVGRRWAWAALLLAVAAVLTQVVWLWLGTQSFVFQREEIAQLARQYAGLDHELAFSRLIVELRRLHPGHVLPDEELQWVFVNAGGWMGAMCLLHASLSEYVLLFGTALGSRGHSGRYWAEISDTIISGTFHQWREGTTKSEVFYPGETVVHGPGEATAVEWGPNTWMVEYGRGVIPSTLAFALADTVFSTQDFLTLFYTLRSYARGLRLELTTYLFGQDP

Chain of Calcium/calmodulin-dependent protein kinase type II subunit beta (Homo sapiens) (Q13554 whole entry): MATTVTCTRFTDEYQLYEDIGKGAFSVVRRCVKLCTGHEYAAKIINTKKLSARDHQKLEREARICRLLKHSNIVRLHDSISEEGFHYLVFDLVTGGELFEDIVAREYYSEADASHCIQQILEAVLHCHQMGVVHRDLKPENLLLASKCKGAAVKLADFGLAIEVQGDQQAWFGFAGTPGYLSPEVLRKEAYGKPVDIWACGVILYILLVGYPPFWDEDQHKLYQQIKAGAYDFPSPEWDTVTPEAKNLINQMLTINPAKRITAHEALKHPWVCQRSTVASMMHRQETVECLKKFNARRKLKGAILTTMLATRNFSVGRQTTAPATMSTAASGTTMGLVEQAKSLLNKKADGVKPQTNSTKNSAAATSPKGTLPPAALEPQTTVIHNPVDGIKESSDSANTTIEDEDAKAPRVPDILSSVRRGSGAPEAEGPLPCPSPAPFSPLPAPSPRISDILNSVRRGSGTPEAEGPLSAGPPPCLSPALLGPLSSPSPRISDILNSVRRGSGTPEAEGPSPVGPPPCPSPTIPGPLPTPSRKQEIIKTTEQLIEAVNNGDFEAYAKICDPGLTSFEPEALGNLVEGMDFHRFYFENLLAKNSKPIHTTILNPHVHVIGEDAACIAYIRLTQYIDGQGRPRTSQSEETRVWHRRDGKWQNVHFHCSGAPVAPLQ

qKD [1]: > 75 µM | inhibition [2]: 7% | inhibition [4]: 3% | inhibition [5]: 6% | inhibition [6]: 10% | inhibition [7]: 4% | inhibition [8]: 5% | inhibition [9]: 31% | IC50 [10]: 6.4 µM | inhibition [11]: 33% | inhibition ([12]; Compound concentration 1.0 uM): 45% | inhibition ([12]; Compound concentration 10.0 uM): 25% | inhibition [13]: 11% | inhibition ([14]; Compound concentration 1.0 uM): 20% | inhibition ([14]; Compound concentration 10.0 uM): 22% | inhibition ([15]; Compound concentration 1.0 uM): 18% | inhibition ([15]; Compound concentration 10.0 uM): 30% | inhibition [16]: -3.25% | inhibition ([17]; Compound concentration 0.3 uM): 5.39% | inhibition ([17]; Compound concentration 1.0 uM): 8.98% | inhibition ([17]; Compound concentration 3.0 uM): 11% | inhibition [18]: 8.87% | inhibition [19]: 18.7% | inhibition [20]: 21.2% | inhibition [21]: 8.8% | inhibition [22]: 19.9% | inhibition [23]: 21.7% | inhibition [24]: 21% | inhibition [25]: 10.3% | inhibition [26]: -4.69% | inhibition [27]: 20.8% | inhibition [28]: 54.6% | inhibition [29]: 0.49% | inhibition [30]: 65.8% | inhibition [31]: 102%
SMILES: COc1nc2ccc([C@@](O)(c3ccccc3)C3CCN(C(C)=O)CC3)cc2c(Cl)c1Cc1ccc(-n2cccn2)cc1 [JNJ-54119936]
inhibition [3]: 10%
